The assay has as its system Pkhd1^del4/del4 cholangiocytes. Briefly: Cyst growth of cholangiocytes on matrigel (3D culture). Conditions: for cyst growth / cyst area: 10 μM continuous, cysts induced with Forskolin (10 μM). The format is cell-based, mice. Here is the method: Note that the cysts treated with forskolin (for) grew larger. […] Note that the cysts treated with forskolin (for) grew larger. […] FIG. 3C for 1 wk. […] Cysts were induced with Forskolin (10 μM) for 24 hours prior to study. Columns represent means±standard error (SEM). **P<0.01 ****P<0.0001 (for all graphs). Statistical analysis was performed using an unpaired two-tailed Student's t-test;
Note that the cysts treated with forskolin (for) grew larger. […] Note that the cysts treated with forskolin (for) grew larger. […] FIG. 4C for 1 wk. […] Cysts were induced with Forskolin (10 μM) for 24 hours prior to study. Columns represent means±standard error (SEM). **P<0.01 ****P<0.0001 (for all graphs). Statistical analysis was performed using an unpaired two-tailed Student's t-test;
But cysts do develop from the Pkhd1del4/del4 cholangiocytes. Cyst growth is accelerated by forskolin (for). […] Yanda et al., 2018. The dosage of VX-809 injected was lower than the human pediatric dose, which is 500 mg of Lumacaftor per day; the adult dose is 800 mg/day.
(Methods and cells provided by the Yale O'Brian Center) To create the cholangiocyte cultures PKhd1del/4/del4, Garcia-Gonzalez et al., 2007, animals were crossed with mice transgenic for the Sv40 large T Antigen (strain name SV40 T-antigen JAX strain #002233). Segments of intrahepatic bile ducts were microdissected from livers perfused via the portal vein with molten agarose containing toluidine blue to mark the veins. The liver parenchyma was stripped until the biliary tree was identified and the bile duct units were seeded onto rat type I collagen coated plates. Cells were cultured under non-permissive conditions in the following medium: DMEM/F12 with 5% fetal bovine serum, 10 μL/mL insulin-transferrin selenium, 3.4 μg/mL triiodothyronine, 50,000 U penicillin/streptomycin under humidified conditions at 37° C. in 5% CO2. After one week, the cells were cultured under permissive conditions in the presence of 10 U of interferon-γ at 33° C. in 5% CO2. When confluent, cells were passaged by digesting the collagen slab below the cells (60 min; 37° C.; DMEM/F12 with 2 mg/mL dispase and 1 mg/mL collagenase type 11), then washed twice in PBS and plated onto collagen coated support systems. Clonal cell lines were generated by single cell isolation. Cells were differentiated for 10 days at 37° C. without interferon-γ for experimental use.

Consider `CCOc1ccc2c(-c3cccc(F)c3)nn(CC(=O)N(C)c3ccc4nc(C)oc4c3)c(=O)c2c1` [FDL 169], for which, under “Pkhd1del4/del4 cholangiocytes, time not stated”, the “cyst growth in 3D culture” value was “reduces growth”. In addition, the “cyst growth / cyst area” value (monitored for 1 week) is “reduced cyst growth in the presence of forskolin” and the “cyst growth / cyst area” value (monitored for 48 hrs) was “reduced cyst growth in the presence of forskolin”.

Values taken from patent US20220331301A1, “CYSTIC FIBROSIS TRANSMEMBRANE CONDUCTANCE REGULATOR MODULATORS FOR TREATING AUTOSOMAL RESESSIVE POLYCYSTIC KIDNEY DISEASE” (The Johns Hopkins University, priority 2021, published 2022).
